Reference: patent US20050164951A1, “Inhibitors for the soluble epoxide hydrolase” (The Regents of the University of California, priority 2003, published 2005)
Where two headings read alike, the source gives them in different places.

What was measured:
[1] = molecular target: T1, mouse sEH (Mus musculus, UniProt P34914); test: Inhibition of recombinant mouse sEH, IC50 assay with 4-nitrophenyl-trans-2,3-epoxy-3-phenylpropyl carbonate as substrate; format: biochemical
T1 construct: made in house; host or cells: baculovirus expression system
T1 sequence (P34914 1-554): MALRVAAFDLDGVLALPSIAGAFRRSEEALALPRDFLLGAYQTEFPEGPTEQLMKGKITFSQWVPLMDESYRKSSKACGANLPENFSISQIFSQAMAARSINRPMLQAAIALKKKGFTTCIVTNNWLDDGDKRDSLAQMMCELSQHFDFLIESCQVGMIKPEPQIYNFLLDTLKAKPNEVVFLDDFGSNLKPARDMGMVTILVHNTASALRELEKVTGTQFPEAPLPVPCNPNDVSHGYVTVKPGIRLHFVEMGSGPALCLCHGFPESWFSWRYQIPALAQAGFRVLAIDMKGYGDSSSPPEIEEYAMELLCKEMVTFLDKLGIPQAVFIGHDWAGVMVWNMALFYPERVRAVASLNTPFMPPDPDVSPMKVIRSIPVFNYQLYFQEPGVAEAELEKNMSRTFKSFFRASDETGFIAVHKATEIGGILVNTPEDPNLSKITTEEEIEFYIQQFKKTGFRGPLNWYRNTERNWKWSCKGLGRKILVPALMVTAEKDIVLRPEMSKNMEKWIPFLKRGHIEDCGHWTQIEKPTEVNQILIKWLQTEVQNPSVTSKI
Method: (§1) Assays were performed in triplicate. […] The curve was generated from at least three separate runs, each in triplicate, to obtain the standard deviation (SD) given in Table 1 thru Table 4.

[2] = molecular target: T2, human sEH (Homo sapiens, UniProt P34913); test: Inhibition of recombinant human sEH, IC50 assay with 4-nitrophenyl-trans-2,3-epoxy-3-phenylpropyl carbonate as substrate; format: biochemical; conditions: for IC90: 0.24 μM enzyme
T2 construct: made in house; host or cells: baculovirus expression system
T2 sequence (P34913 1-555): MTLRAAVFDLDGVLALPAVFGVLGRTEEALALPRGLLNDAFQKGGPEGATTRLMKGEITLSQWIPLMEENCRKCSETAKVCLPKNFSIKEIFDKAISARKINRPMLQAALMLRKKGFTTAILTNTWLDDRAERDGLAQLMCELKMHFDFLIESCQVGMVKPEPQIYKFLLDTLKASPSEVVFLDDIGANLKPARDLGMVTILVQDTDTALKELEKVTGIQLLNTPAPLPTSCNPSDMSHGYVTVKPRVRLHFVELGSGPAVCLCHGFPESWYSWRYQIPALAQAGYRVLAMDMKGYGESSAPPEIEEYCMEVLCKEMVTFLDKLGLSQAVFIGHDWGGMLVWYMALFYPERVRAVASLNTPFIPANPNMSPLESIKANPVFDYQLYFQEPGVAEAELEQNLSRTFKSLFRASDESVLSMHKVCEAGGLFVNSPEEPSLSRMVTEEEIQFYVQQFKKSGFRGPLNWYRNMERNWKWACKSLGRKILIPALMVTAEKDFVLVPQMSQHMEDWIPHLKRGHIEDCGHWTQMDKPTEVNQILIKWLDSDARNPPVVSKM
Method: as §1

[3] = Table 3, […] enzyme, 5 min preincubation, pH 7.4, 30° C., means ± SD, read-out: IC50 (μM) Mouse sEH
[4] = Table 3, […] enzyme, 5 min preincubation, pH 7.4, 30° C., means ± SD, read-out: IC50 (μM) Human sEH
[5] = Tables 17a and b, read-out: IC50 (μM) Mouse sEH
[6] = Tables 17a and b, read-out: IC50 (μM) Human sEH
[7] = Table 9, established protocols, read-out: IC50 (μM) Mouse sEH
[8] = Table 9, established protocols, read-out: IC50 (μM) Human sEH
[9] = Table 8, established protocols, read-out: IC50 (μM) Mouse sEH
[10] = Table 8, established protocols, read-out: IC50 (μM) Human sEH
[11] = Table 5, 0.12 μM enzyme, 5 min preincubation, pH 7.4, 30° C., means ± SD
[12] = Table 5, […] enzyme, 5 min preincubation, pH 7.4, 30° C., means ± SD, read-out: Mouse sEH IC50
[13] = Table 5, 5 min preincubation, pH 7.4, 30° C., means ± SD
[14] = Table 5, […] enzyme, 5 min preincubation, pH 7.4, 30° C., means ± SD, read-out: Human sEH IC50
[15] = Table 7, established protocols, read-out: IC50 (μM) Mouse sEH
[16] = Table 7, established protocols, read-out: IC50 (μM) Human sEH

SMILES | IC50 [1, 5] [µM] | IC50 [2, 6] [µM] | further results
CCCCCNC(=O)CCCNC(=O)Nc1cccc(Cl)c1 [Compound 768, 1-(3-chlorophenyl)-3-(3-pentylaminocarbonylpropyl)urea] |  |  | IC50 [1, 3]: 7.2 ± 0.9 µM; IC50 [2, 4]: 32 ± 0.8 µM
CCCCCOC(=O)CCCNC(=O)Cc1cccc(Cl)c1 [Compound 988] | 2.9 ± 0.01 | 5 ± 0.01 | 
CCCCCNC(=O)NC(CO)c1ccccc1 (stereo not shown) [Compound 995] | 11 ± 0.01 | 22.1 ± 0.01 | 
CCCCCCC(=O)CCCNC(=O)Nc1cccc(Cl)c1 [Compound 794, 1-(3-chlorophenyl)-3-(4-oxodecyl)urea] |  |  | IC50 [1, 3]: 0.41 ± 0.05 µM; IC50 [2, 4]: 2.1 ± 0.2 µM
CCOC(=O)CCCCCCOC1CCC(NC(=O)NC23CC4CC(CC(C4)C2)C3)CC1 (stereo not shown) [Compound 961] |  |  | IC50 [1, 7]: 0.05 ± 0.01 µM; IC50 [2, 8]: 0.1 ± 0.01 µM
CCOC(=O)c1ccc(C(C)OC(=O)CCCNC(=O)NC23CC4CC(CC(C4)C2)C3)cc1 (stereo not shown) [Compound 948] | 0.08 ± 0.01 | 0.12 ± 0.01 | 
CCCCC(O)CCCCNC(=O)NC12CC3CC(CC(C3)C1)C2 (stereo not shown) [Compound 994] | 0.05 ± 0.01 | 0.1 ± 0.01 | 
COc1ccc(NC(=O)CC2CCCCC2)cc1 [Compound 965] | 0.15 ± 0.01 |  | IC50 [2]: 6 ± 0.01 µM
O=C(NC12CC3CC(CC(C3)C1)C2)C(F)(F)C(F)(F)C(F)(F)C(F)(F)C(F)(F)C(F)(F)C(F)(F)C(F)(F)C(F)(F)C(F)(F)C(F)(F)F [Compound 903] | 0.1 ± 0.01 | 0.01 ± 0.01 | 
CCCCC(CC)OC(=O)CCCNC(=O)NC12CC3CC(CC(C3)C1)C2 (stereo not shown) [Compound 905] | 0.13 ± 0.01 | 0.45 ± 0.01 | 
O=C(CC12CC3CC(CC(C3)C1)C2)NCCCc1ccccc1 [Compound 967] | 0.07 ± 0.01 | 0.12 ± 0.01 | 
CCOC(=O)c1ccc(C(C#N)OC(=O)C2CCCC(NC(=O)NC34CC5CC(CC(C5)C3)C4)C2)cc1 (stereo not shown) [Compound 1014] |  |  | IC50 [1, 7]: 0.05 ± 0.01 µM; IC50 [2, 8]: 0.14 ± 0.01 µM
CCOC(=O)c1ccc(C(C#N)OC(=O)CCCNC(=O)NC23CC4CC(CC(C4)C2)C3)cc1 (stereo not shown) [Compound 947] | 0.07 ± 0.01 | 0.11 ± 0.01 | 
O=C(CCCCCCOCCOCCOCc1ccccc1)NC12CC3CC(CC(C3)C1)C2 [Compound 959] |  |  | IC50 [1, 9]: 0.05 ± 0.01 µM; IC50 [2, 10]: 0.11 ± 0.02 µM
CCOC(=O)c1ccc(COC(=O)C2CCCC(NC(=O)NC34CC5CC(CC(C5)C3)C4)C2)cc1 (stereo not shown) [Compound 942] | 0.05 ± 0.01 | 0.1 ± 0.01 | 
COC(=O)CCCCNC(=O)NC1CCCCC1 [Compound 854] |  |  | IC50 ([1]; Table 1, 0.12 μM enzyme, 5 min preincubation, pH 7.4, 30° C., [S] = 40 μM, means ± SD of three experiments, read-out: IC50 (μM) Mouse sEH): 0.13 ± 0.03 µM; IC50 ([2]; Table 1, […] enzyme, 5 min preincubation, pH 7.4, 30° C., [S] = 40 μM, means ± SD of three experiments, read-out: IC50 (μM) Human sEH): 5 ± 0.6 µM
CCOC(=O)c1ccc(C(OC(=O)CCCNC(=O)NC23CC4CC(CC(C4)C2)C3)c2ccccc2)cc1 (stereo not shown) [Compound 949] | 0.05 ± 0.01 | 0.1 ± 0.01 | 
O=C(CC1CCCCC1)Nc1cccc(Cl)c1 [Compound 966] | 0.58 ± 0.01 | 2.1 ± 0.01 | 
CC(C)OCCOCCOCCCCCNC(=O)NC12CC3CC(CC(C3)C1)C2 [Compound 974] | 0.05 ± 0.01 | 0.1 ± 0.01 | 

SMILES | IC50 [1, 5] [µM] | IC50 [2, 6] [µM] | further results
CCCCCOC(=O)CCCNC(=O)CC12CC3CC(CC(C3)C1)C2 [Compound 1017] |  |  | IC50 [1, 9]: 0.05 ± 0.01 µM; IC50 [2, 10]: 0.43 ± 0.02 µM
CCOC(=O)CCCCOC(=O)CCCNC(=O)NC12CC3CC(CC(C3)C1)C2 [Compound 877] |  |  | IC90 [1, 11]: 100 ± 10 nM; IC50 [1, 12]: 0.05 ± 0.01 µM; IC90 [2, 13]: 1500 ± 100 nM; IC50 [2, 14]: 0.13 ± 0.01 µM
O=C(NCCCC(=O)OCc1ccccc1)NC12CC3CC(CC(C3)C1)C2 [Compound 945] | 0.05 ± 0.01 | 0.19 ± 0.01 | 
CCCCCOC(=O)c1cccc(NC(=O)NC23CC4CC(CC(C4)C2)C3)c1 [Compound 859] |  |  | IC50 [1, 7]: 0.05 ± 0.01 µM; IC50 [2, 8]: 0.1 ± 0.01 µM
CCCCCCCCC(NC(=O)CCCCCCCCCCCNC(=O)NC12CC3CC(CC(C3)C1)C2)C(=O)O (stereo not shown) [Compound 1001] | 0.05 ± 0.01 | 0.24 ± 0.01 | 
CCCCC(CC)OCCCCCNC(=O)NC12CC3CC(CC(C3)C1)C2 (stereo not shown) [Compound 910] | 0.05 ± 0.01 | 0.24 ± 0.01 | 
O=C(NCCCCCOCCCCCOCC(F)(F)F)NC12CC3CC(CC(C3)C1)C2 [Compound 1004] | 0.05 ± 0.01 | 0.16 ± 0.01 | IC50 [1, 15]: 0.05 ± 0.01 µM; IC50 [2, 16]: 0.13 ± 0.01 µM
CC(=O)Nc1ccc(CC(=O)NC23CC4CC(CC(C4)C2)C3)cc1 [Compound 912] | 4.1 ± 0.01 | 35 ± 0.01 | 
C#COCCOCCCCCNC(=O)NC12CC3CC(CC(C3)C1)C2 [Compound 913] |  |  | IC50 [1, 15]: 0.05 ± 0.01 µM; IC50 [2, 16]: 0.1 ± 0.01 µM
CCOC(=O)COC(=O)CCCNC(=O)NC12CC3CC(CC(C3)C1)C2 [Compound 857] |  |  | IC90 [1, 11]: 110 ± 10 nM; IC50 [1, 12]: 0.05 ± 0.01 µM; IC90 [2, 13]: 9000 ± 2000 nM; IC50 [2, 14]: 0.39 ± 0.01 µM
O=C(NCCCN1CCOCC1)NC12CC3CC(CC(C3)C1)C2 [Compound 1016] | 0.05 ± 0.01 | 6 ± 0.01 | 
O=C(NCCCCCCCCCCCC(=O)OCC12CC3CC(CC(C3)C1)C2)NC12CC3CC(CC(C3)C1)C2 [Compound 786, 1-(1-adamantyl)-3-(11-(1-adamantyl)methyloxycarbonylundecyl)urea] |  |  | IC50 ([1]; Table 4, 0.12 μM enzyme, 5 min preincubation, pH 7.4, 30° C., means ± SD, read-out: IC50 (μM) Mouse sEH): 0.07 ± 0.01 µM; IC50 ([2]; Table 4, […] enzyme, 5 min preincubation, pH 7.4, 30° C., means ± SD, read-out: IC50 (μM) Human sEH): 0.23 ± 0.02 µM
CCCCCOC(=O)C1CCCC(NC(=O)NC23CC4CC(CC(C4)C2)C3)C1 (stereo not shown) [Compound 861] |  |  | IC50 [1, 7]: 0.05 ± 0.01 µM; IC50 ([2]; read-out: IC50 (μM) Human sEH): 0.1 ± 0.01 µM
CC(O)c1cccc2c(S(=O)(=O)NCCOCCOCCCCCNC(=O)NC34CC5CC(CC(C5)C3)C4)cccc12 (stereo not shown) [Compound 976] | 0.05 ± 0.01 | 0.1 ± 0.01 | 
CCCCCOC(=O)C1CCCC(NC(=O)NC23CC4CC(CC(C4)C2)C3)C1 (stereo not shown) [Compound 906] | 0.05 ± 0.01 |  | IC50 [2]: 0.1 ± 0.01 µM
O=C(CC1CCCCC1)NCCCc1ccccc1 [Compound 990] | 0.73 ± 0.01 | 1.1 ± 0.01 | 
CC(C)=CCOC1CCC(NC(=O)NC23CC4CC(CC(C4)C2)C3)CC1 (stereo not shown) [Compound 983] |  |  | IC50 [1, 7]: 0.05 ± 0.01 µM; IC50 [2, 8]: 0.1 ± 0.01 µM
CCCCCNC(=O)C1CCCC(NC(=O)NC23CC4CC(CC(C4)C2)C3)C1 (stereo not shown) [Compound 960] |  |  | IC50 [1, 7]: 0.05 ± 0.01 µM; IC50 [2, 8]: 0.1 ± 0.01 µM
CN(C)c1cccc2c(S(=O)(=O)NCCNC(=O)NC34CC5CC(CC(C5)C3)C4)cccc12 [Compound 907] | 0.4 ± 0.01 | 0.6 ± 0.01 | 
